This note sets out measurements from ChEMBL document CHEMBL5725721, “Pyridazinone-amides derivatives” (2017).

In the assay the target is Interleukin-1 receptor-associated kinase 1 (Homo sapiens, UniProt P51617). The assay is described as follows: IRAK1 Enzymatic Assay: IRAK1 is a human purified recombinant enzyme (His-TEV-IRAK1 (194-712)) In this assay, IRAK-1 hydrolyses ATP and autophosphorylates.Measurement of IRAK-1 inhibition is performed in streptavidin coated 384 well FlashPlate (PerkinElmer #SMP410A).His-TEV-IRAK-1 (15 ng/well), ATP (1 μM, [33P]ATP 0.25 μCi/well) and compounds in DMSO (range of concentrations from 20 μM to 1 nM) or controls (2% DMSO) are incubated for 3 hours at 30° C. in assay buffer: Hepes pH7.0 50 mM, Fatty acid-free BSA 0.1%, Dithiothreitol DTT 2 mM, MgCl2 10 mM, EGTA 0.5 mM, Triton-X-100 0.01%. Kinase reaction is stopped by addition of EDTA. Supernatant is discarded, plates are washed three times with 150 mM NaCl and radioactivity is then measured in a Microbeta Trilux reader.
Chain of Interleukin-1 receptor-associated kinase 1 (P51617 whole entry): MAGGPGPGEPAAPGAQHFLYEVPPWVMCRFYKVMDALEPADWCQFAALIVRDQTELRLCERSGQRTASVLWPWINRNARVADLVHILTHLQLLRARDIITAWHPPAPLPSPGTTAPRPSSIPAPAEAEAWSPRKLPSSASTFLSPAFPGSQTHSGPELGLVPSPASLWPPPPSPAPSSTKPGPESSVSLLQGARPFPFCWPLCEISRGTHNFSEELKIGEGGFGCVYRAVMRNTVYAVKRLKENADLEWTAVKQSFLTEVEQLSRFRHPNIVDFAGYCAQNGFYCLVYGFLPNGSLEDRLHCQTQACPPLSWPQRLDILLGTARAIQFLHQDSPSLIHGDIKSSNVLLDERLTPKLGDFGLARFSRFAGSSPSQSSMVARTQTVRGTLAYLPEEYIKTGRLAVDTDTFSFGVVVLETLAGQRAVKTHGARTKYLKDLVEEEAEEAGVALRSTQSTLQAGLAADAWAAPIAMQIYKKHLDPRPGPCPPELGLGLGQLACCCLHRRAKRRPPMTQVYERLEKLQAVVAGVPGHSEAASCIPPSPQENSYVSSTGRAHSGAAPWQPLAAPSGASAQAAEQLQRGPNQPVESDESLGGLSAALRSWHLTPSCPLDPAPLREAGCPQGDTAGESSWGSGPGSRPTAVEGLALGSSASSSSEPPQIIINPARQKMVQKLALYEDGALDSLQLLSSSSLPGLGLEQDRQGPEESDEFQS

By IC50 is commonly meant the concentration needed to halve the response being measured. For the molecule `Cc1ccncc1-c1ccc(=O)n(Cc2cccc(C(=O)Nc3nc4ccccc4[nH]3)c2)n1`, the IC50 was below 100 nM.
